{"source": "patent US10125100B2", "about": "“Kinase inhibitors” (Respivert Limited, priority 2014, dated 2018)", "system": "Jurkat cells", "assay": "(r) Cell cytotoxicity assay", "format": "cell-based, human", "settings": "24 hours", "method": "1×10^5 Jurkat cells (immortalised human T lymphocytes) are added to the appropriate number of wells of a 96 well plate in 100 μL of media (RPMI supplemented with 10% foetal bovine serum). 1 μL of DMSO control (final concentration 1.0% v/v) or test compound (final concentration 20, 5 or 1 μg/mL) is added to the wells and incubated at 37° C., 5% CO2. After 24 hours, the plate is centrifuged at 1200 rpm for 3 minutes and the supernatant discarded. Cells are then resuspended in 150 μL (final concentration 7.5 μg/mL) of propidium iodide (PI) in PBS and incubated at 37° C., 5% CO2 for 15 minutes. After 15 minutes, cells are analysed by flow cytometry (BD accuri) using the FL3 window. The % viability is calculated as the % of cells that are PI negative in the test wells normalised to the DMSO control.", "data": [{"smiles": "CCC(=O)NS(=O)(=O)c1ccc(Nc2nccc(Oc3ccc(NC(=O)Nc4cc(C(C)(C)C)cc(NS(C)(=O)=O)c4OC)c4ccccc34)n2)cc1OC", "note": "[17(bk), N-((4-((4-((4-(3-(5-(tert-Butyl)-2-methoxy-3-(methylsulfonamido)phenyl)ureido)-naphthalen-1-yl)oxy)pyrimidin-2-yl)amino)-2-methoxyphenyl)sulfonyl)propionamide]", "values": [{"measurement": "% Viability at 1 μg/mL", "result": 93.0, "unit": "%"}, {"measurement": "% Viability at 5 μg/mL", "result": 71.8, "unit": "%"}, {"measurement": "% Viability at 20 μg/mL", "result": 65.6, "unit": "%"}]}, {"smiles": "COc1cc(Nc2cc(Oc3ccc(NC(=O)Nc4cc(C(C)(C)C)cc(NS(C)(=O)=O)c4OC)c4ccccc34)ccn2)ccc1C(=O)NC(C)CN1CCN(C)CC1", "note": "(stereo not drawn) [17(bl), 4-((4-((4-(3-(5-(tert-Butyl)-2-methoxy-3-(methylsulfonamido)phenyl)ureido)naphthalen-1-yl)oxy)pyridin-2-yl)amino)-2-methoxy-N-(1-(4-methylpiperazin-1-yl)propan-2-yl)benzamide]", "values": [{"measurement": "% Viability at 1 μg/mL", "result": 103.6, "unit": "%"}, {"measurement": "% Viability at 5 μg/mL", "result": 0.2, "unit": "%"}, {"measurement": "% Viability at 20 μg/mL", "result": 0.5, "unit": "%"}]}, {"smiles": "COc1cc(Nc2cc(Oc3ccc(NC(=O)Nc4cc(C(C)(C)C)cc(NS(C)(=O)=O)c4OC)c4ccccc34)ccn2)ccc1C(=O)NCCOCCO", "note": "[17(bm), 4-((4-((4-(3-(5-(tert-Butyl)-2-methoxy-3-(methylsulfonamido)phenyl)ureido)naphthalen-1-yl)oxy)pyridin-2-yl)amino)-N-(2-(2-hydroxyethoxy)ethyl)-2-methoxybenzamide]", "values": [{"measurement": "% Viability at 1 μg/mL", "result": 103.6, "unit": "%"}, {"measurement": "% Viability at 5 μg/mL", "result": 0.2, "unit": "%"}, {"measurement": "% Viability at 20 μg/mL", "result": 0.5, "unit": "%"}]}, {"smiles": "COc1cc(Nc2cc(Oc3ccc(NC(=O)Nc4cc(C(C)(C)C)cc(NS(C)(=O)=O)c4OC)c4ccccc34)ccn2)ccc1C(=O)NCCO", "note": "[17(bn), 4-((4-((4-(3-(5-(tert-Butyl)-2-methoxy-3-(methylsulfonamido)phenyl)ureido)naphthalen-1-yl)oxy)pyridin-2-yl)amino)-N-(2-hydroxyethyl)-2-methoxybenzamide]", "values": [{"measurement": "% Viability at 1 μg/mL", "result": 102.8, "unit": "%"}, {"measurement": "% Viability at 5 μg/mL", "result": 65.6, "unit": "%"}, {"measurement": "% Viability at 20 μg/mL", "result": 19.5, "unit": "%"}]}, {"smiles": "COc1cc(Nc2cc(Oc3ccc(NC(=O)Nc4cc(NS(C)(=O)=O)cc(C(C)(C)C)c4)c4ccccc34)ccn2)ccc1C(=O)NCCN1CCN(C)CC1", "note": "[17(bo), 4-((4-((4-(3-(3-(tert-Butyl)-5-(methylsulfonamido)phenyl)ureido)naphthalen-1-yl)oxy)pyridin-2-yl)amino)-2-methoxy-N-(2-(4-methylpiperazin-1-yl)ethyl)benzamide]", "values": [{"measurement": "% Viability at 1 μg/mL", "result": 98.5, "unit": "%"}, {"measurement": "% Viability at 5 μg/mL", "result": 45.3, "unit": "%"}, {"measurement": "% Viability at 20 μg/mL", "result": 14.0, "unit": "%"}]}, {"smiles": "COc1c(NC(=O)Nc2ccc(Oc3ccnc(Nc4ccc(C(=O)NCCN5CCN(C)CC5)c(N(C)C)c4)c3)c3ccccc23)cc(C(C)(C)C)cc1NS(C)(=O)=O", "note": "[17(bq), 4-((4-((4-(3-(5-(tert-Butyl)-2-methoxy-3-(methylsulfonamido)phenyl)ureido)naphthalen-1-yl)oxy)pyridin-2-yl)amino)-2-(dimethylamino)-N-(2-(4-methylpiperazin-1-yl)ethyl)benzamide]", "values": [{"measurement": "% Viability at 1 μg/mL", "result": 87.2, "unit": "%"}, {"measurement": "% Viability at 5 μg/mL", "result": 55.3, "unit": "%"}, {"measurement": "% Viability at 20 μg/mL", "result": 2.0, "unit": "%"}]}, {"smiles": "COc1cc(Nc2cc(Oc3ccc(NC(=O)Nc4cc(C(C)(C)C)cc(NS(C)(=O)=O)c4OC)c4ccccc34)ccn2)ccc1C(=O)N[C@H]1C(O)O[C@H](CO)[C@@H](O)[C@@H]1O", "note": "(stereo partly drawn) [17(br), 4-((4-((4-(3-(5-(tert-Butyl)-2-methoxy-3-(methylsulfonamido)phenyl)ureido)naphthalen-1-yl)oxy)pyridin-2-yl)amino)-2-methoxy-N-((3R,4R,5S,6R)-2,4,5-trihydroxy-6-(hydroxymethyl)tetrahydro-2H-pyran-3-yl)benzamide]", "values": [{"measurement": "% Viability at 1 μg/mL", "result": 91.8, "unit": "%"}, {"measurement": "% Viability at 5 μg/mL", "result": 90.7, "unit": "%"}, {"measurement": "% Viability at 20 μg/mL", "result": 79.2, "unit": "%"}]}, {"smiles": "COc1cc(Nc2cc(Oc3ccc(NC(=O)Nc4cc(NS(C)(=O)=O)cc(C(C)(C)C)c4)c4ccccc34)ccn2)ccc1C(=O)NCCC1CCN(C)CC1", "note": "[17(bs), 4-((4-((4-(3-(3-(tert-Butyl)-5-(methylsulfonamido)phenyl)ureido)naphthalen-1-yl)oxy)pyridin-2-yl)amino)-2-methoxy-N-(2-(1-methylpiperidin-4-yl)ethyl)benzamide]", "values": [{"measurement": "% Viability at 1 μg/mL", "result": 90.9, "unit": "%"}, {"measurement": "% Viability at 5 μg/mL", "result": 48.7, "unit": "%"}, {"measurement": "% Viability at 20 μg/mL", "result": 0.3, "unit": "%"}]}, {"smiles": "COc1c(NC(=O)Nc2ccc(Oc3ccnc(Nc4ccc(C(=O)NCCOCCOCCO)c(N(C)C)c4)c3)c3ccccc23)cc(C(C)(C)C)cc1NS(C)(=O)=O", "note": "[17(bt), 4-((4-((4-(3-(5-(tert-Butyl)-2-methoxy-3-(methylsulfonamido)phenyl)ureido)naphthalen-1-yl)oxy)pyridin-2-yl)amino)-2-(dimethylamino)-N-(2-(2-(2-hydroxyethoxy)ethoxy)ethyl) benzamide]", "values": [{"measurement": "% Viability at 1 μg/mL", "result": 89.8, "unit": "%"}, {"measurement": "% Viability at 5 μg/mL", "result": 39.9, "unit": "%"}, {"measurement": "% Viability at 20 μg/mL", "result": 22.5, "unit": "%"}]}, {"smiles": "COc1cc(Nc2cc(Oc3ccc(NC(=O)Nc4cc(C(C)(C)C)cc(NS(C)(=O)=O)c4OC)c4ccccc34)ccn2)ccc1C(=O)NCCCC[C@H](N)C(=O)O", "note": "[17(bu), (S)-2-Amino-6-(4-((4-((4-(3-(5-(tert-butyl)-2-methoxy-3-(methylsulfonamido)phenyl)-ureido)naphthalen-1-yl)oxy)pyridin-2-yl)amino)-2-methoxybenzamido)hexanoic acid]", "values": [{"measurement": "% Viability at 1 μg/mL", "result": 92.6, "unit": "%"}, {"measurement": "% Viability at 5 μg/mL", "result": 92.6, "unit": "%"}, {"measurement": "% Viability at 20 μg/mL", "result": 91.7, "unit": "%"}]}, {"smiles": "COc1cc(Nc2cc(Oc3ccc(NC(=O)Nc4cc(C(C)(C)C)cc(NS(C)(=O)=O)c4OC)c4ccccc34)ccn2)ccc1C(=O)NC[C@H](O)[C@@H](O)[C@H](O)[C@H](O)CO", "note": "[17(bw), 4-((4-((4-(3-(5-(tert-Butyl)-2-methoxy-3-(methylsulfonamido)phenyl)ureido)naphthalen-1-yl)oxy)pyridin-2-yl)amino)-2-methoxy-N-((2S,3R,4R,5R)-2,3,4,5,6-pentahydroxyhexyl) benzamide]", "values": [{"measurement": "% Viability at 1 μg/mL", "result": 94.5, "unit": "%"}, {"measurement": "% Viability at 5 μg/mL", "result": 96.2, "unit": "%"}, {"measurement": "% Viability at 20 μg/mL", "result": 92.4, "unit": "%"}]}, {"smiles": "COc1cc(Nc2nccc(Oc3ccc(NC(=O)Nc4cc(C(C)(C)C)cc(NS(C)(=O)=O)c4OC)c4ccccc34)n2)ccc1C(=O)NCCOCCOCCO", "note": "[17(by), 4-((4-((4-(3-(5-(tert-Butyl)-2-methoxy-3-(methylsulfonamido)phenyl)ureido)naphthalen-1-yl)oxy)pyrimidin-2-yl)amino)-N-(2-(2-(2-hydroxyethoxy)ethoxy)ethyl)-2-methoxybenzamide]", "values": [{"measurement": "% Viability at 1 μg/mL", "result": 102.4, "unit": "%"}, {"measurement": "% Viability at 5 μg/mL", "result": 81.5, "unit": "%"}, {"measurement": "% Viability at 20 μg/mL", "result": 1.6, "unit": "%"}]}, {"smiles": "COc1cc(Nc2cc(Oc3ccc(NC(=O)Nc4cc(C(C)(C)C)cc(NS(C)(=O)=O)c4OC)c4ccccc34)ccn2)cc(OC)c1C(=O)NC1CCN(C)CC1", "note": "[17(bz), 4-((4-((4-(3-(5-(tert-Butyl)-2-methoxy-3-(methylsulfonamido)phenyl)ureido)naphthalen-1-yl)oxy)pyridin-2-yl)amino)-2,6-dimethoxy-N-(1-methylpiperidin-4-yl)benzamide]", "values": [{"measurement": "% Viability at 1 μg/mL", "result": 93.6, "unit": "%"}, {"measurement": "% Viability at 5 μg/mL", "result": 92.7, "unit": "%"}, {"measurement": "% Viability at 20 μg/mL", "result": 64.1, "unit": "%"}]}, {"smiles": "COc1cc(Nc2cc(Oc3ccc(NC(=O)Nc4cc(C(C)(C)C)cc(NS(C)(=O)=O)c4OC)c4ccccc34)ccn2)cc(OC)c1C(=O)NCC1CCN(C)CC1", "note": "[17(ca), 4-((4-((4-(3-(5-(tert-Butyl)-2-methoxy-3-(methylsulfonamido)phenyl)ureido)naphthalen-1-yl)oxy)pyridin-2-yl)amino)-2,6-dimethoxy-N-((1-methylpiperidin-4-yl)methyl)benzamide]", "values": [{"measurement": "% Viability at 1 μg/mL", "result": 92.6, "unit": "%"}, {"measurement": "% Viability at 5 μg/mL", "result": 94.0, "unit": "%"}, {"measurement": "% Viability at 20 μg/mL", "result": 75.8, "unit": "%"}]}, {"smiles": "COc1cc(Nc2cc(Oc3ccc(NC(=O)Nc4cc(C(C)(C)C)cc(NS(C)(=O)=O)c4OC)c4ccccc34)ccn2)ccc1C(=O)NCCNC(=O)CCC(=O)O", "note": "[17(cd), 4-((2-(4-((4-((4-(3-(5-(tert-Butyl)-2-methoxy-3-(methylsulfonamido)phenyl)ureido)-naphthalen-1-yl)oxy)pyridin-2-yl)amino)-2-methoxybenzamido)ethyl)amino)-4-oxobutanoic acid]", "values": [{"measurement": "% Viability at 1 μg/mL", "result": 96.4, "unit": "%"}, {"measurement": "% Viability at 5 μg/mL", "result": 96.5, "unit": "%"}, {"measurement": "% Viability at 20 μg/mL", "result": 91.4, "unit": "%"}]}, {"smiles": "COc1cc(Nc2cc(Oc3ccc(NC(=O)Nc4cc(C(C)(C)C)cc(NS(C)(=O)=O)c4OC)c4ccccc34)ccn2)ccc1C(=O)NCCC(=O)N1C[C@H](O)[C@@H](O)[C@H](O)[C@H]1CO", "note": "[17(cf), 4-((4-((4-(3-(5-(tert-Butyl)-2-methoxy-3-(methylsulfonamido)phenyl)ureido)naphthalen-1-yl)oxy)pyridin-2-yl)amino)-2-methoxy-N-(3-oxo-3-((2R,3R,4R,5S)-3,4,5-trihydroxy-2-(hydroxymethyl)piperidin-1-yl)propyl)benzamide]", "values": [{"measurement": "% Viability at 1 μg/mL", "result": 96.7, "unit": "%"}, {"measurement": "% Viability at 5 μg/mL", "result": 96.7, "unit": "%"}, {"measurement": "% Viability at 20 μg/mL", "result": 96.8, "unit": "%"}]}, {"smiles": "COc1cc(Nc2cc(Oc3ccc(NC(=O)Nc4cc(C(C)(C)C)cc(NS(C)(=O)=O)c4OC)c4ccccc34)ccn2)cc(OC)c1C(=O)N1CCN(CCN(C)C)CC1", "note": "[17(cg), N-(5-(tert-Butyl)-3-(3-(4-((2-((4-(4-(2-(dimethylamino)ethyl)piperazine-1-carbonyl)-3,5-dimethoxyphenyl)amino)pyridin-4-yl)oxy)naphthalen-1-yl)ureido)-2-methoxyphenyl)methane sulfonamide]", "values": [{"measurement": "% Viability at 1 μg/mL", "result": 96.1, "unit": "%"}, {"measurement": "% Viability at 5 μg/mL", "result": 95.3, "unit": "%"}, {"measurement": "% Viability at 20 μg/mL", "result": 92.3, "unit": "%"}]}]}
